Here are results for three compounds from ChEMBL document CHEMBL1132770, “Selective kappa-opioid antagonists related to naltrindole. Effect of side-chain spacer in the 5'-amidinoalkyl series” (Bioorg Med Chem Lett, 2000).

For orientation: Ki means the equilibrium dissociation constant of an inhibitor or competing ligand from its target. Low values mean a stronger hold on the target, high ones a looser hold on the target.

Assay [1] concerns the target T1, Kappa-type opioid receptor (Homo sapiens, UniProt P41145). Nature of the assay: Compound was evaluated for its binding affinity to CHO cells expressing cloned human Opioid receptor kappa 1 by displacing [3H]U-69593. The format is cell-based.
For assay [2], the target named is T2, Delta-type opioid receptor (Homo sapiens, UniProt P41143). Nature of the assay: Compound was evaluated for its binding affinity to CHO cells expressing cloned human Opioid receptor delta 1 by displacement of [3H]Cl-DPDPE. The format is cell-based. Background: Loss of bound radioactivity is the signal in a displacement assay; it reports binding, not function.

Assay [3] has as its target T3, Mu-type opioid receptor (Homo sapiens, UniProt P35372). Nature of the assay: Compound was evaluated for its binding affinity by displacing DAMGO to human cloned mu opioid receptor transfected into CHO cells using [35S]GTP-gamma-S, assay. The format is functional, cell-based.
In assay [4] the target is T3, Mu-type opioid receptor. Nature of the assay: Compound was evaluated for its binding affinity against CHO cells transfected with cloned human Opioid receptor mu 1 by displacing [3H]DAMGO. Format: cell-based.
The target of assay [5] is T2, Delta-type opioid receptor. Nature of the assay: Compound was evaluated for functional opioid activity by stimulation of [35S]GTP-gamma-S, in cloned human Opioid receptor delta 1 transfected into CHO cells. The format is cell-based.
Assay [6] addresses T1, Kappa-type opioid receptor. Description: Compound was evaluated for its binding affinity by displacing [3H]U-69593 to human cloned Kappa opioid receptor transfected into CHO cells using [35S]GTP-gamma-S, assay. The format is functional, cell-based. (GTPγS resists hydrolysis and so accumulates on activated G proteins.)
Assay [7] addresses T2, Delta-type opioid receptor. Description: Compound was evaluated for its binding affinity to CHO cells expressing cloned human Opioid receptor delta 1 by displacement of [3H]-Cl-DPDPE. The format is cell-based.
Assay [8] addresses Mu-type opioid receptor (Cavia porcellus, UniProt P97266). Description: Compound was evaluated for its binding affinity against Opioid receptor mu 1 of guinea pig brain membrane by displacing [3H]DAMGO.

T2 sequence (P41143 whole entry): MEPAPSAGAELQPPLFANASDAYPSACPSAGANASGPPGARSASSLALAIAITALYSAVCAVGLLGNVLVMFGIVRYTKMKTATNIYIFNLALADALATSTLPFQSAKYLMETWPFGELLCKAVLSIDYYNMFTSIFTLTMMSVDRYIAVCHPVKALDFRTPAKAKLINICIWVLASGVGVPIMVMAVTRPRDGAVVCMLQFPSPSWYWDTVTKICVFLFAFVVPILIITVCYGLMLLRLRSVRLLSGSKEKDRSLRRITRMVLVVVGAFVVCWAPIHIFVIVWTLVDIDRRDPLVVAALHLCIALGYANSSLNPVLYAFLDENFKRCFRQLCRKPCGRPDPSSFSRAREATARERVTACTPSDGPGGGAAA
T1 sequence (P41145 whole entry): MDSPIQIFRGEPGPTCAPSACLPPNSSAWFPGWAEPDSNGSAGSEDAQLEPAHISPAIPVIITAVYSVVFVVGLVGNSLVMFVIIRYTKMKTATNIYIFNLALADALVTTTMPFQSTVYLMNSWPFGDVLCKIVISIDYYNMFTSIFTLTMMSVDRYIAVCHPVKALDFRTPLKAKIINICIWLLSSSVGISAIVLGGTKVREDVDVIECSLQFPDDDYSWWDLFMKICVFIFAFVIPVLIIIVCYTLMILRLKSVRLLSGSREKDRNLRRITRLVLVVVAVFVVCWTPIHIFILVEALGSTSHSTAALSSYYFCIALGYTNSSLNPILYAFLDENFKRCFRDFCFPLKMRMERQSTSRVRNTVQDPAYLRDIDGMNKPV
T3 sequence (P35372 whole entry): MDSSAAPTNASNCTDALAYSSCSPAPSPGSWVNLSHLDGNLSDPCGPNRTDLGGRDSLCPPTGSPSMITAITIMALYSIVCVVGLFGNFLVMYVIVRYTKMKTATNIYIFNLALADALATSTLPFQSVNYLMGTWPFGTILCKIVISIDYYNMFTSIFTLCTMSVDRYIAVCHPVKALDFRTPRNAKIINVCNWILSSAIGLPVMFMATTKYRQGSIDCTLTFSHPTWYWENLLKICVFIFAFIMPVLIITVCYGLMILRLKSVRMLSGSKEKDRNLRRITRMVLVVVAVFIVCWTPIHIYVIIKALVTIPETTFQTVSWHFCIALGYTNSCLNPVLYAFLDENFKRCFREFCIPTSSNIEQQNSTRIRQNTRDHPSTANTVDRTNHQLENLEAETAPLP
Chain of Mu-type opioid receptor (Cavia porcellus, UniProt P97266) (P97266 whole entry): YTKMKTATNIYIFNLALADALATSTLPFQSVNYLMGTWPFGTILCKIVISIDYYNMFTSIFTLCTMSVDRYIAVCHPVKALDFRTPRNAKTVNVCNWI

For `CCCCC(=N)NCCc1ccc2[nH]c3c(c2c1)C[C@@]1(O)C2Cc4ccc(O)c5c4C1(CCN2CC1CC1)C3O5` (some centres undefined), the Ki came to 0.3 nM in assay [1]; 38.2 nM in assay [2]; 5.33 nM on Mu-type opioid receptor [3]; 219 nM on Mu-type opioid receptor [4]; 3.31 nM in assay [5]; 0.17 nM in assay [6].

On to `CCCCC(=N)NCc1ccc2[nH]c3c(c2c1)C[C@@]1(O)C2Cc4ccc(O)c5c4C1(CCN2CC1CC1)C3O5` (some centres undefined), for which the values for the inhibition constant Ki (in assay [7]; at Mu-type opioid receptor [8]) were 5.5 nM and 3.5 nM, respectively.

In the case of `NCCc1ccc2[nH]c3c(c2c1)C[C@@]1(O)C2Cc4ccc(O)c5c4C1(CCN2CC1CC1)C3O5` (some centres undefined), the Ki is 1.08 nM in assay [1]; 28.2 nM in assay [2]; 17.4 nM at Mu-type opioid receptor [3]; 29.6 nM at Mu-type opioid receptor [4]; 3.79 nM in assay [5]; 0.12 nM in assay [6].
